Reference: ChEMBL document CHEMBL3627687, “Sesquiterpenes from Carpesium macrocephalum inhibit Candida albicans biofilm formation and dimorphism” (Bioorg Med Chem Lett, 2015)
Converted amounts (≈) assume the structure as drawn.

Experiments:
Candida albicans [1] = test: Antifungal activity against Candida albicans SC5314 assessed as inhibition of biofilm formation by XTT assay; type: functional, organism-based
Candida albicans [2] = test: Antifungal activity against Candida albicans SC5314 assessed as inhibition of yeast cell to hyphae transition after 4 hrs by microscopic analysis; type: functional, organism-based; details: SC5314, 4 h
Candida albicans [3] = test: Antifungal activity against Candida albicans SC5314 by CLSI standard M27-A3 method; type: functional

Row | Compound | IC50 (Candida albicans [1]) [µg/mL] | IC50 (Candida albicans [2]) [µg/mL] | MIC50 (Candida albicans [3]) [µg/mL]
1 | C=C1C(=O)O[C@H]2C[C@H](C)[C@@H]3CC[C@@]4(C)O[C@@]34C[C@H]12 | 38 (≈ 153 µM) | 106 (≈ 429 µM) | –
2 | C=C1C(=O)O[C@@H]2C[C@H](C)C(CCC(C)O)=CC[C@H]12 (stereo not given in full) | > 128 | > 128 | –
3 | C=C1C(=O)O[C@@H]2C[C@@]3(C)CCC[C@H](C)[C@@]34O[C@H]4[C@H]12 | > 128 | 118 (≈ 477 µM) | –
4 | C=C1C(=O)O[C@@H]2C[C@]3(C)[C@@H](CCC(C)=O)[C@@H]3C[C@H]12 | > 128 | 100 (≈ 403 µM) | –
5 | C=C1C(=O)O[C@@H]2C[C@H](C)C(CCC(C)OC(=O)C(C)CC)=CC[C@H]12 (stereo not given in full) | > 128 | 105 (≈ 314 µM) | –
6 | C=C(C(=O)O)[C@@H]1CC[C@@]2(C)CCC=C(C)C2C1 (stereo not given in full) | > 128 | > 128 | –
7 | OC(Cn1cncn1)(Cn1cncn1)c1ccc(F)cc1F [FLUCONAZOLE] | 2 (≈ 6.53 µM) | – | –
8 | C=C1C(=O)O[C@@H]2C[C@@]3(C)C[C@@H](O)CC(=C)[C@@H]3C[C@H]12 [IVALIN] | 15.4 (≈ 62 µM) | > 128 | –
9 | C=C1C(=O)O[C@@H]2C[C@@]3(C)CCCC(=C)[C@]3(O)C[C@H]12 [TELEKIN] | 36 (≈ 145 µM) | > 128 | –
10 | C=C1C(=O)O[C@@H]2C[C@H](C)C(CCC(C)=O)=CC[C@H]12 [TOMENTOSIN] | > 128 | 31.6 (≈ 127 µM) | 128 (≈ 515 µM)
